Where two headings read alike, the source gives them in different places.
Legend:
[1] = molecular target: T1, HCV NS5B RdRp (NS5BCdelta21) (Hepatitis C virus genotype 1b, UniProt P26663); assay: HCV NS5B RNA-dependent RNA polymerase (RdRp) assay, poly rA/U12 primer-dependent elongation; assay type: biochemical; conditions: read-out: Anti-HCV Activity (%Inhibition, 100 µM)
T1 construct: 500 ng of NS5BCdelta21; made in house; host or cells: Escherichia coli DH5alpha

[2] = molecular target: T1, HCV NS5B RdRp (NS5BCdelta21); assay: as above; assay type: biochemical; conditions: for inhibition at 100 µM: read-out: Anti-NS5B Activity (% Inhibition, 100 µM); for inhibition at 200 µM: read-out: Anti-NS5B Activity (% Inhibition, 200 µM)
Protocol: The RdRp activity of NS5B was evaluated by the standard primer-dependent elongation reactions employing poly rA/U12 template-primers (TP). Reaction mixtures containing 20 mM Tris-HCl (pH 7.0), 100 mM NaCl, 100 mM Na-glutamate, 0.5 mM DTT, 0.01% BSA, 0.01% Tween-20, 5% glycerol, 20 U/ml of RNasin, 0.5 microM of poly rA/U12, 25 microM UTP, 2-5 microCi [alpha-32P]UTP, 500 ng of NS5BCdelta21 and 0.5 mM MnCl2 with or without inhibitors in a total volume of 25 microliters were incubated for 1 h at 30°C. Reactions were quenched by the addition of ice cold 5% (v/v) trichloroacetic acid (TCA) containing 0.5 mM pyrophosphate (PPi), the denatured polymeric RNA products were transferred to GF-B filters and the amount of radioactive UMP incorporated into RNA products was quantified on a liquid scintillation counter (Packard). The concentrations of the compounds inhibiting 50% of NS5B RdRp activity (IC50) were calculated from the inhibition curves as a function of inhibitor concentration. Nsp12 activity was similarly evaluated except that incubations were carried out at 25°C for optimal enzymatic activity.
The ability of the compounds to inhibit HCV NS5B RdRp activity was investigated in vitro by polyrA-U12 extension assay as described in experimental section by Kaushik-Basu N, et al.. The compounds SGK 224-230, 313 and SGK 238- 244, 315 were reconstituted in DMSO as 50 mM stocks, and serially diluted in DMSO to obtain working stocks.
Preliminary screening was carried out at 100 µM to identify a wider range of compounds. […] NS5B RdRp activity in the absence of the inhibitor was taken as 100 percent after subtraction of residual background activity. The concentration of DMSO in all reactions was kept constant at 5%. […] Curves were fitted to data points using nonlinear regression analysis and IC50 values were interpolated from the resulting curves using GraphPad Prism 3.03 software.

[3] = dose-response curves, 8-10 concentrations, duplicate, two independent experiments, read-out: IC50

T1 sequence (P26663 2420-2989): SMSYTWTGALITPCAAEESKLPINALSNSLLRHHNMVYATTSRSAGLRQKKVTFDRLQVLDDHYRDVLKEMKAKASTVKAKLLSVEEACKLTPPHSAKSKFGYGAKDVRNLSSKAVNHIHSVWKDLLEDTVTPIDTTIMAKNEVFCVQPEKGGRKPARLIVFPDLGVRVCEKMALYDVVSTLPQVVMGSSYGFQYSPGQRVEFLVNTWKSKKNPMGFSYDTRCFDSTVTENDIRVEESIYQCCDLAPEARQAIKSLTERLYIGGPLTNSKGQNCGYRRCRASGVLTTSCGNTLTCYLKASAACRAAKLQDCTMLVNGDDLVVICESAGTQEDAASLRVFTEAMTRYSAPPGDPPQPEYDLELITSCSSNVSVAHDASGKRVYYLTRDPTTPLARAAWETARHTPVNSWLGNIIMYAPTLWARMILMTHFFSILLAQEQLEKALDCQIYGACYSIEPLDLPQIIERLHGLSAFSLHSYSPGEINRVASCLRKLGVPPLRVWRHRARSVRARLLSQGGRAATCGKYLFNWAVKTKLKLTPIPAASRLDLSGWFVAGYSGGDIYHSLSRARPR

Structure (SMILES) | inhibition at 100 µM [1] | inhibition at 100 µM [2] | inhibition at 200 µM [2] | IC50 [2] | IC50 [2, 3]
CCc1cccc2c3c([nH]c12)C(CC)(CC(=O)O)OCC3 (racemic) [Etodolac, (R,S)-2-[1,8-diethyl-1,3,4-tetrahydrapyrano[3,4-b]indole-1-yl]acetic acid] | 7.4% |  |  |  | 
CCc1cccc2c3c([nH]c12)C(CC)(CC(=O)OC)OCC3 (racemic) [SGK 196, methyl (1,8-diethyl-1,3,4,9-tetrahydropirano[3,4-b]indole-1-yl) acetate] |  | 6.4 ± 0.9% | 13.3 ± 1.2% |  | 
CCc1cccc2c3c([nH]c12)C(CC)(CC(=O)NN)OCC3 (stereo not drawn) [SGK 197, 2-(1,8-diethyl-1,3,4,9-tetrahydropyrano[3,4-b]indole-1-yl)acetohydrazide] |  | 11.4 ± 0.2% | 19 ± 4.4% |  | 
CCc1cccc2c3c([nH]c12)C(CC)(CC(=O)NN=Cc1cccc(F)c1)OCC3 (stereo not drawn) [SGK 202, 2-(1,8-Diethyl-1,3,4,9-tetrahydropyrano[3,4-b]indole-1-yl) acetic acid [(3-fluorophenyl)methylene] hydrazide] |  | 61.6 ± 0.4% | 66.4 ± 5.8% | 35.9 ± 1.4 µM | 
CCc1cccc2c3c([nH]c12)C(CC)(CC(=O)NNC(=S)NC)OCC3 (stereo not drawn) [SGK 224, 1-[2-(1,8-diethyl-1,3,4,9-tetrahydropyrano[3,4-b]indol-1-yl)acetyl]-4-methyl thiosemicarbazide] |  | 76.2 ± 0.5% | 77.5 ± 1.3% |  | 18.7 µM
C=CCNC(=S)NNC(=O)CC1(CC)OCCc2c1[nH]c1c(CC)cccc21 (stereo not drawn) [SGK 229, 1-[2-(1,8-Diethyl-1,3,4,9-tetrahydropyrano[3,4-b]indole-1-yl)acetyl]-4-allyl thiosemicarbazide] |  | 78.6 ± 2.1% | 81.6 ± 0.8% |  | 16.8 ± 1.2 µM
CCc1cccc2c3c([nH]c12)C(CC)(Cc1n[nH]c(=S)n1C)OCC3 (stereo not drawn) [SGK 238, 5-[(1,8-diethyl-1,3,4,9-tetrahydropyrano[3,4-b]indol-1-yl)methyl]-4-methyl-2,4-dihydro-3H-1,2,4-triazole-3-thione] |  | 78.9 ± 0.7% | 86 ± 0.6% | 14.8 µM | 
COc1cc(O)c2c(c1)oc(=O)c1c3cc(O)c(O)cc3oc21 [Wedelolacton, reference compound] |  |  |  |  | 36 µM
